For 18 compounds, Neutrophil adhesion inhibition and IC50 results are on record in US20230150951A1, “2,5- OR 2,6-DISUBSTITUTED HYDROQUINONE DERIVATIVES WITH AT LEAST ONE CARBOXY, SULFO OR AMIDO GROUP USEFUL AS MEDICAMENTS” (OM PHARMA SA, priority 2020, published 2023).

pIC50: −log10 of the molar value. Read-outs that look alike come from different tables or passages of the source. Where only a bound is given, the exact number is not on record here.

What all share (assay type): cell-based
The subject of experiment [1] is Human neutrophils. Nature of the experiment: Neutrophil adhesion under static conditions. Conditions: fMLP-stimulated adhesion to fibrinogen; method: 40 μM and 80 μM, concentration of the value not stated. In outline: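 Donor buffy-coat neutrophils (3×10^6/ml, PBS with Ca/Mg, 10% FCS, pH 7.2) preincubated 30 min at 37° C with 40 μM or 80 μM compound, then stimulated 1 min at 37° C with 1 nM fMLP on fibrinogen-coated glass. Adherent cells fixed and counted by computer; mean ± SD, unpaired t-test.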

Experiment [2] relates to IFN-gamma. Nature of the experiment: Cytokine release after LPS induction on human whole blood: IFNγ. How it is done:
Aim of this in vitro method is to assess compounds effects on release of a panel of cytokines from whole blood following lipopolysaccharide (LPS) induced inflammatory reaction. Whole blood was incubated with compounds for 1 h prior to LPS induction. Cytokine levels in blood were measured using a multiplex FACS-based panel.
IC50 values determined for the tested compounds expressed in microM [μM] and the values for the inhibition of cytokines were listed for each compound.
Effect on cytokines release after LPS induction was performed on the compounds dissolved in DMSO or H2O to reach 10-fold concentrated stock solutions and dissolved in culture media.
Test system: Whole blood was removed from a single donor (into lithium heparin coated tubes; BD Vacutainer; 367886) and diluted 1:5 with RPMI 1640 (Thermo Fisher, 61870036). Within 30 minutes of sampling, blood was incubated with compounds for 1 h prior to LPS stimulation (O111:B4—Sigma L4391; 10 ng/ml final concentration). Stimulation continued under standard cell culture conditions (37° C. with 5% CO2) overnight (18 h), after which plates were centrifuged and supernatant removed and frozen at −80° C. until used for analyses.
Dilution of test compounds: 10×concentrated solutions (concerning to the final assay concentrations) of each test compound were prepared with the appropriate solvent (in DMSO or in water). These 10× compound solutions (10 μl) were then added to 90 μl pre-diluted whole blood (whole blood: RPMI1640, 1:5) resulting in the final assay concentration.
Test method: Diluted whole blood (80 μl) was pre-incubated with compounds (10 μl) to give final assay concentrations of 100, 30, 10, 3, 1, 0.3 and 0.1×10^−6M. Blood was incubated at 37° C. with 5% CO2 for 1 h. LPS was diluted in cell culture media to a concentration of […]; 10 μl was added to the whole blood to give a final concentration of 10 ng/ml. Plates were incubated at 37° C. for 18 h. Plates were centrifuged at 3,000 RPM for 5 minutes at 4° C. and supernatant removed and frozen at −80° C. until FACS analysis was carried out.
Cytokine release was measured using a custom multiplex system (ELISA Genie) according to manufacturers instructions. Prepared samples were run on an Attune NxT flow cytometer (Thermo Fisher).
Quantification of cytokine release inhibition: known concentration standards were run as part of the cytokine panel to allow quantification of each cytokine concentration in each sample. This was carried out using FCAP Array v3.0 software.
Results: The dose response relationship on cytokine release following LPS induction of inflammatory response in whole blood was assessed for all compounds. IC50 values were determined for each compound for a panel of cytokines (GM-CSF, IFN-gamma, IL-1beta, IL-2, IL-4, IL-5, IL-6, IL-8, IL-9, IL-10, IL-12p40, IL-13, IL-17A, IL-17F, IL-18, IL-21, IL-22, IL-33, TGF-beta, TNF-alpha, TNF-beta).

Experiment [3] deals with IL-12p70. Nature of the experiment: Cytokine release after LPS induction on human whole blood: IL-12p70.
Setting [4] is: Homo sapiens, LPS 10 ng/ml, 18 h, read-out: Whole Blood: IFNγ IC50.
[5] abbreviates: human whole blood, inhibition of LPS induced inflammation, read-out: IC50 IFNγ.
Setting [6] is: Homo sapiens, LPS 10 ng/ml, 18 h, read-out: Whole Blood: IL-12p70 IC50.
Where [7] appears, read: human whole blood, inhibition of LPS induced inflammation, read-out: IC50 IL-12p70.

As usually defined, the pIC50 is the negative decadic logarithm of the IC50, by convention in mol/L. In experiment [1], `O=C(O)c1cc(O)c(C(=O)Nc2ccc(-c3nnn[nH]3)cc2)cc1O` [Ia-003a-Tz, 4-(4-(1H-tetrazol-5-yl)phenyl-aminocarbonyl)-2,5-dihydroxybenzoic acid] yielded a Neutrophil adhesion inhibition of 30.33%. Besides, the negative-log IC50 (pIC50) in experiment [2] (setting [4]) was 5.53; in experiment [2] (setting [5]) it was 5.53; in experiment [3] (setting [6]), 5.90; in experiment [3] (setting [7]), 5.90.

The compound `O=C(O)c1cc(O)cc(CSCc2cc(O)cc(C(=O)O)c2O)c1O` [IVc-058a, 3-((2,5-Dihydroxy-3-carboxyphenyl)methylthiomethyl)-2,5-dihydroxybenzoic acid] registered a Neutrophil adhesion inhibition in experiment [1] of 43.5%. In addition, the negative logarithm of the IC50 (pIC50) in experiment [2] (setting [4]) was 4.97; in experiment [2] (setting [5]), 4.97; in experiment [3] (setting [6]), 5.37; in experiment [3] (setting [7]), 5.37.

For the compound `O=C(O)Cc1cc(O)c(C(=O)Nc2ccccc2-c2nnn[nH]2)cc1O` [IIIa-001aTz], in experiment [1], the Neutrophil adhesion inhibition is recorded as 39.74%. Further, the pIC50 in experiment [2] (setting [4]) was 4.72; in experiment [2] (setting [5]) it was 4.72; in experiment [3] (setting [6]), 6.32; in experiment [3] (setting [7]) it was 6.32.

`O=C(Nc1ccccc1-c1nnn[nH]1)c1cc(O)c(C(=O)Nc2ccccc2-c2nnn[nH]2)cc1O` [Ic-001aTz2, N1,N4-bis(2-(1H-tetrazol-5-yl)phenyl)-2,5-dihydroxyterephthalamide] gave a Neutrophil adhesion inhibition in experiment [1] of 97.15%. The values for the pIC50 in experiment [2] (setting [4]) and in experiment [3] (setting [6]) were 5.86 and 4.54, respectively.

In the case of `O=C(O)c1cc(O)c(C(=O)Nc2ccccc2-c2nnn[nH]2)cc1O` [Ia-001a-Tz, 4-(2-(1H-tetrazol-5-yl)phenyl-aminocarbonyl)-2,5-dihydroxybenzoic acid], in experiment [1], the Neutrophil adhesion inhibition is given as 69.75%. Moreover, the pIC50 in experiment [2] (setting [4]) is less than 4.00; in experiment [2] (setting [5]) it was 4.00; in experiment [3] (setting [6]), 4.49; in experiment [3] (setting [7]), 4.49.

In experiment [1], `O=C(O)Cc1cc(O)c(C(=O)Nc2c(C(=O)O)cccc2C(=O)O)cc1O` [IIIa-013a, 2-(4-(carboxymethyl)-2,5-dihydroxybenzamido)isophthalic acid] had a Neutrophil adhesion inhibition of 30.667%. Further, the pIC50 in experiment [2] (setting [4]) was 6.82; in experiment [2] (setting [5]), 6.82; in experiment [3] (setting [6]), 6.30; in experiment [3] (setting [7]) it was 6.30.

As to `COC(=O)c1cc(OC(C)=O)cc(CS(=O)(=O)Cc2cc(OC(C)=O)cc(C(=O)OC)c2OC(C)=O)c1OC(C)=O` [IVc-059a-E2-A4], in experiment [1], the Neutrophil adhesion inhibition is recorded as 87.5%. Further, the pIC50 is 5.46 in experiment [2] (setting [4]), 5.46 in experiment [2] (setting [5]), 4.29 in experiment [3] (setting [6]) and 4.29 in experiment [3] (setting [7]).

Consider `O=C(O)c1cc(NC(=O)c2cc(O)c(C(=O)O)cc2O)cc(NC(=O)c2cc(O)c(C(=O)O)cc2O)c1` [Ib-010a, 3,5-bis(2,5-dihydroxy-4-carboxybenzoylamino)benzoic acid], for which the Neutrophil adhesion inhibition in experiment [1] is 1.5%. The pIC50 in experiment [2] (setting [4]) was 5.65; in experiment [2] (setting [5]), 5.65; in experiment [3] (setting [6]), 6.57; in experiment [3] (setting [7]) it was 6.57.

`O=C(O)c1cc(O)cc(CS(=O)(=O)Cc2cc(O)cc(C(=O)O)c2O)c1O` [IVc-059a, 3-((2,5-Dihydroxy-3-carboxyphenyl)methylsulfonylmethyl)-2,5-dihydroxybenzoic acid] registered a Neutrophil adhesion inhibition in experiment [1] of 10%. Besides, the pIC50 is 5.36 in experiment [2] (setting [4]), 5.36 in experiment [2] (setting [5]), 4.38 in experiment [3] (setting [6]) and 4.38 in experiment [3] (setting [7]).

On to `O=C(O)c1cc(NC(=O)c2cc(O)c(C(=O)Nc3ccc(O)c(C(=O)O)c3)cc2O)ccc1O` [Ic-007a, 5-(4-(3-carboxy-4-hydroxyphenylaminocarbonyl)-2,5-dihydroxybenzamido)-2-hydroxy benzoic acid], for which the Neutrophil adhesion inhibition in experiment [1] was 57.5%. Also, the pIC50 was 5.84 in experiment [2] (setting [4]), 5.84 in experiment [2] (setting [5]), 6.31 in experiment [3] (setting [6]) and 6.31 in experiment [3] (setting [7]).

On to `O=C(O)c1cc(O)c(C(=O)Nc2ccccc2C(=O)O)cc1O` [Ia-001a, 4-(2-carboxyphenylaminocarbonyl)-2,5-dihydroxybenzoic acid], for which, in experiment [1], the Neutrophil adhesion inhibition came out at 44.3%. Further, the pIC50 is 4.52 in experiment [2] (setting [4]), 4.52 in experiment [2] (setting [5]), 5.82 in experiment [3] (setting [6]) and 5.82 in experiment [3] (setting [7]).

With `O=C(O)c1cc(O)ccc1NC(=O)c1cc(O)cc(C(=O)Nc2ccc(O)cc2C(=O)O)c1O` [IIc-009a, 2-(3-(2-carboxy-4-hydroxyphenylaminocarbonyl)-2,5-dihydroxybenzamido)-5-hydroxyl benzoic acid], the Neutrophil adhesion inhibition in experiment [1] is 53.15%. Further, the pIC50 is 6.27 in experiment [2] (setting [4]), 6.27 in experiment [2] (setting [5]), less than 4.00 in experiment [3] (setting [6]) and 4.00 in experiment [3] (setting [7]).

In turn, `O=C(O)c1ccccc1CNC(=O)c1cc(O)cc(C(=O)O)c1O` [IIa-053a, 3-(2-Carboxyphenylmethylaminocarbonyl)-2,5-dihydroxybenzoic acid] had a Neutrophil adhesion inhibition in experiment [1] of 20%. The pIC50 is 5.98 in experiment [2] (setting [4]), 5.98 in experiment [2] (setting [5]), 6.57 in experiment [3] (setting [6]) and 6.57 in experiment [3] (setting [7]).

In experiment [1], `O=C(O)c1cc(NC(=O)c2cc(O)cc(C(=O)Nc3ccc(O)c(C(=O)O)c3)c2O)ccc1O` [IIc-007a, 5-(3-(3-carboxy-4-hydroxyphenylaminocarbonyl)-2,5-dihydroxybenzamido)-2-hydroxy benzoic acid] displayed a Neutrophil adhesion inhibition of 64.61%. The pIC50 in experiment [2] (setting [4]) was 6.96; in experiment [2] (setting [5]) it was 6.96; in experiment [3] (setting [6]), 5.47; in experiment [3] (setting [7]) it was 5.47.

Regarding `CC(=O)N(Cc1cc(O)c(C(=O)O)cc1O)Cc1cc(O)c(C(=O)O)cc1O` [IIIc-057a, N,N-Bis(4-carboxy-2,5-dihydroxyphenylmethyl)acetamide], the Neutrophil adhesion inhibition in experiment [1] stood at 40.04%. The pIC50 in experiment [2] (setting [4]) is 6.05; in experiment [2] (setting [5]), 6.05; in experiment [3] (setting [6]), 6.14; in experiment [3] (setting [7]) it was 6.14.

With `O=C(O)c1cc(O)c(C(=O)Nc2ccccc2S(=O)(=O)O)cc1O` [Ia-001c, 2,5-dihydroxy-4-(2-sulfophenylaminocarbonyl)benzoic acid], the Neutrophil adhesion inhibition in experiment [1] came to 31.33%. Moreover, the pIC50 in experiment [2] (setting [4]), in experiment [2] (setting [5]), in experiment [3] (setting [6]) and in experiment [3] (setting [7]) was 6.36 each time.

In turn, `O=C(O)c1cc(O)c(CN(Cc2cc(O)c(C(=O)O)cc2O)Cc2cc(O)c(C(=O)O)cc2O)cc1O` [IIIc-061a, Tris(4-carboxy-2,5-dihydroxyphenylmethyl)amine] returned a Neutrophil adhesion inhibition in experiment [1] of 58.69%. In addition, the pIC50 in experiment [2] (setting [4]) is 5.61; in experiment [2] (setting [5]) it was 5.61; in experiment [3] (setting [6]), 4.43; in experiment [3] (setting [7]) it was 4.43.

Take `O=C(O)c1cc(NC(=O)c2cc(O)c(C(=O)Nc3ccccc3-c3nnn[nH]3)cc2O)ccc1O` [Ic-001a-Tz/004a, 5-(4-(2-(1H-tetrazol-5-yl)phenylaminocarbonyl)-2,5-dihydroxybenzamido)-2-hydroxy benzoic acid]: in experiment [1], the Neutrophil adhesion inhibition was 96.99%. Further, the negative-log IC50 (pIC50) in experiment [2] (Homo sapiens, 18 h, read-out: Whole Blood: IFNγ IC50) is 6.21; in experiment [2] (Homo sapiens, read-out: IC50 IFNγ), 6.21; in experiment [3] (Homo sapiens, 18 h, read-out: Whole Blood: IL-12p70 IC50), 4.91; in experiment [3] (Homo sapiens, read-out: IC50 IL-12p70), 4.91.
